Data published in US8247211B2, “Glycopeptide antibiotics” (American Cyanamid Company, priority 2001, dated 2012).
In brackets after ≈: the same amount, converted by molar mass. Each block holds one molecule with its values, some of them ahead of it.

Legend:
Test in all cases: In vitro antibacterial evaluation: minimum inhibitory concentration (MIC), broth dilution method
Type in all cases: cell-based
Escherichia coli = settings: 18 hours at 35° C.
Outline: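 Values are minimum inhibitory concentrations, meaning the smallest antibiotic concentration that stops growth of the organism. They come from broth dilution in Muller-Hinton II […] per NCCLS guidance (M7-A2), using 5×10^5 CFU/mL and concentrations from 64 to 0.06 μg/mL.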

Staphylococcus sp. = settings: for MIC Staphylococcus aureus (ATCC 29213): strain ATCC 29213; for MIC Staphylococcus aureus (GC 1131): strain GC 1131; for MIC Staphylococcus aureus (GC 4541): strain GC 4541; for MIC Staphylococcus aureus-SMITH (GC 4543): strain GC 4543; for MIC Coagulase Negative Staphylococcus (GC 4547): strain GC 4547; for MIC Coagulase Negative Staphylococcus (GC 4548): strain GC 4548; for MIC Coagulase Negative Staphylococcus (GC 4549): strain GC 4549; for MIC Coagulase Negative Staphylococcus (GC 6257): strain GC 6257
Outline: (§1)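 An MIC is reported for each organism as the least concentration giving inhibition, using broth dilution over 64-0.06 μg/mL with a 5×10^5 CFU/mL inoculum.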

Streptococcus sp. = settings: 18 hours at 35° C.
Outline: as §1

Enterococcus sp. = settings: 18 hours at 35° C.
Outline: as §1

[1] = Streptococcus pneumoniae (ATCC 6301)
[2] = Streptococcus pneumoniae (GC 1894)
[3] = broth dilution, inoculum 5×10^5 CFU/mL
[4] = Enterococcus faecalis (ATCC 29212)
[5] = Enterococcus faecalis (GC 2242)
[6] = Enterococcus faecalis (GC 6189)

MIC Escherichia coli (ATCC 25922) (Escherichia coli): 64 µg/mL (≈ 43.8 µM)
MIC Escherichia coli (GC 4559) (Escherichia coli): >64 µg/mL
MIC Escherichia coli (GC 4560) (Escherichia coli): 4 µg/mL (≈ 2.74 µM)
MIC Staphylococcus aureus (ATCC 29213) (Staphylococcus sp.): 4 µg/mL (≈ 2.74 µM)
MIC Staphylococcus aureus (GC 1131) (Staphylococcus sp.): 2 µg/mL (≈ 1.37 µM)
MIC Staphylococcus aureus (GC 4541) (Staphylococcus sp.): 2 µg/mL (≈ 1.37 µM)
MIC Staphylococcus aureus-SMITH (GC 4543) (Staphylococcus sp.): 1 µg/mL (≈ 0.685 µM)
MIC Coagulase Negative Staphylococcus (GC 4547) (Staphylococcus sp.): 4 µg/mL (≈ 2.74 µM)
MIC Coagulase Negative Staphylococcus (GC 4548) (Staphylococcus sp.): 1 µg/mL (≈ 0.685 µM)
MIC Coagulase Negative Staphylococcus (GC 4549) (Staphylococcus sp.): 1 µg/mL (≈ 0.685 µM)
MIC Coagulase Negative Staphylococcus (GC 6257) (Staphylococcus sp.): 2 µg/mL (≈ 1.37 µM)
MIC Streptococcus pneumoniae (ATCC 6301) (Streptococcus sp.; [1]): <0.06 µg/mL
MIC Streptococcus pneumoniae (GC 1894) (Streptococcus sp.; [2]): <0.06 µg/mL
MIC Streptococcus pneumoniae (ATCC 6301) (Streptococcus sp.; [3]): <0.06 µg/mL
MIC Streptococcus pneumoniae (GC 1894) (Streptococcus sp.; [3]): <0.06 µg/mL
MIC Enterococcus avium (GC 4558) (Enterococcus sp.; Enterococcus avium (GC 4558)): 4 µg/mL (≈ 2.74 µM)
MIC Enterococcus faecalis (ATCC 29212) (Enterococcus sp.; [4]): 4 µg/mL (≈ 2.74 µM)
MIC Enterococcus faecalis (GC 2242) (Enterococcus sp.; [5]): 4 µg/mL (≈ 2.74 µM)
MIC Enterococcus faecalis (GC 6189) (Enterococcus sp.; [6]): 1 µg/mL (≈ 0.685 µM)
MIC Enterococcus faecium (GC 2243) (Enterococcus sp.; Enterococcus faecium (GC 2243)): 1 µg/mL (≈ 0.685 µM)
MIC Enterococcus faecium (GC 4556) (Enterococcus sp.; Enterococcus faecium (GC 4556)): 4 µg/mL (≈ 2.74 µM)
MIC Enterococcus avium (GC 4558) (Enterococcus sp.; [3]): 4 µg/mL (≈ 2.74 µM)
MIC Enterococcus faecalis (ATCC 29212) (Enterococcus sp.; [3]): 4 µg/mL (≈ 2.74 µM)
MIC Enterococcus faecalis (GC 2242) (Enterococcus sp.; [3]): 4 µg/mL (≈ 2.74 µM)
MIC Enterococcus faecalis (GC 6189) (Enterococcus sp.; [3]): 1 µg/mL (≈ 0.685 µM)
MIC Enterococcus faecium (GC 2243) (Enterococcus sp.; [3]): 1 µg/mL (≈ 0.685 µM)
MIC Enterococcus faecium (GC 4556) (Enterococcus sp.; [3]): 4 µg/mL (≈ 2.74 µM)
Structure (SMILES): CC(c1ccccc1)C1NC(=O)CNC(=O)C(CO)NC(=O)C(C(O)C2CNC(=N)N2C2OC(CO)C(O)C(O)C2O)NC(=O)C(C(O)C2CNC(=N)N2)NC(=O)C(Cc2ccc(OC3OC(CO)C(OC4OC5COC6(CCCCCCCCCCC6)OC5C(O)C4O)C(O)C3O)cc2)NC1=O (stereo not drawn) [Example 209, Cyclo[glycyl-β-methylphenylalanyl-O-[4-O-(4,6-O-cyclododecylidenehexopyranosyl)-hexopyranosyl]tyrosyl-3-(2-iminoimidazolidin-4-yl)seryl-3-(3-hexopyranosyl-2-iminoimidazolidin-4-yl)serylseryl]]

MIC Escherichia coli (ATCC 25922) (Escherichia coli): >64 µg/mL
MIC Escherichia coli (GC 4559) (Escherichia coli): >64 µg/mL
MIC Escherichia coli (GC 4560) (Escherichia coli): 64 µg/mL (≈ 43.4 µM)
MIC Staphylococcus aureus (ATCC 29213) (Staphylococcus sp.): 32 µg/mL (≈ 21.7 µM)
MIC Staphylococcus aureus (GC 1131) (Staphylococcus sp.): 32 µg/mL (≈ 21.7 µM)
MIC Staphylococcus aureus (GC 3051) (Staphylococcus sp.; strain GC 3051): 32 µg/mL (≈ 21.7 µM)
MIC Staphylococcus aureus (GC 3053) (Staphylococcus sp.; strain GC 3053): 32 µg/mL (≈ 21.7 µM)
MIC Staphylococcus aureus (GC 4541) (Staphylococcus sp.): 32 µg/mL (≈ 21.7 µM)
MIC Staphylococcus aureus (GC 4542) (Staphylococcus sp.; strain GC 4542): 32 µg/mL (≈ 21.7 µM)
MIC Staphylococcus aureus-SMITH (GC 4543) (Staphylococcus sp.): 32 µg/mL (≈ 21.7 µM)
MIC Staphylococcus aureus (GC 4544) (Staphylococcus sp.; strain GC 4544): 32 µg/mL (≈ 21.7 µM)
MIC Staphylococcus aureus (GC 4545) (Staphylococcus sp.; strain GC 4545): 32 µg/mL (≈ 21.7 µM)
MIC Coagulase Negative Staphylococcus (GC 4547) (Staphylococcus sp.): 32 µg/mL (≈ 21.7 µM)
MIC Coagulase Negative Staphylococcus (GC 4548) (Staphylococcus sp.): 32 µg/mL (≈ 21.7 µM)
MIC Coagulase Negative Staphylococcus (GC 4549) (Staphylococcus sp.): 8 µg/mL (≈ 5.43 µM)
MIC Coagulase Negative Staphylococcus (GC 4551) (Staphylococcus sp.; strain GC 4551): 32 µg/mL (≈ 21.7 µM)
MIC Coagulase Negative Staphylococcus (GC 6257) (Staphylococcus sp.): 32 µg/mL (≈ 21.7 µM)
MIC Streptococcus agalactiae (GC 4564) (Streptococcus sp.; Streptococcus agalactiae (GC 4564)): 0.25 µg/mL (≈ 0.17 µM)
MIC Streptococcus pneumoniae (ATCC 6301) (Streptococcus sp.; [1]): 0.25 µg/mL (≈ 0.17 µM)
MIC Streptococcus pneumoniae (GC 1894) (Streptococcus sp.; [2]): <0.06 µg/mL
MIC Streptococcus pneumoniae (GC 4565) (Streptococcus sp.; Streptococcus pneumoniae (GC 4565)): <0.06 µg/mL
MIC Streptococcus pyogenes (GC 4563) (Streptococcus sp.; Streptococcus pyogenes (GC 4563)): 2 µg/mL (≈ 1.36 µM)
MIC Streptococcus agalactiae (GC 4564) (Streptococcus sp.; [3]): 0.25 µg/mL (≈ 0.17 µM)
MIC Streptococcus pneumoniae (ATCC 6301) (Streptococcus sp.; [3]): 0.25 µg/mL (≈ 0.17 µM)
MIC Streptococcus pneumoniae (GC 1894) (Streptococcus sp.; [3]): <0.06 µg/mL
MIC Streptococcus pneumoniae (GC 4565) (Streptococcus sp.; [3]): <0.06 µg/mL
MIC Streptococcus pyogenes (GC 4563) (Streptococcus sp.; [3]): 2 µg/mL (≈ 1.36 µM)
MIC Enterococcus avium (GC 4558) (Enterococcus sp.; Enterococcus avium (GC 4558)): 16 µg/mL (≈ 10.9 µM)
MIC Enterococcus faecalis (ATCC 29212) (Enterococcus sp.; [4]): 32 µg/mL (≈ 21.7 µM)
MIC Enterococcus faecalis (GC 2242) (Enterococcus sp.; [5]): 16 µg/mL (≈ 10.9 µM)
MIC Enterococcus faecalis (GC 2691) (Enterococcus sp.; Enterococcus faecalis (GC 2691)): 8 µg/mL (≈ 5.43 µM)
MIC Enterococcus faecalis (GC 3059) (Enterococcus sp.; Enterococcus faecalis (GC 3059)): 32 µg/mL (≈ 21.7 µM)
MIC Enterococcus faecalis (GC 4552) (Enterococcus sp.; Enterococcus faecalis (GC 4552)): 32 µg/mL (≈ 21.7 µM)
MIC Enterococcus faecalis (GC 4553) (Enterococcus sp.; Enterococcus faecalis (GC 4553)): 16 µg/mL (≈ 10.9 µM)
MIC Enterococcus faecalis (GC 4554) (Enterococcus sp.; Enterococcus faecalis (GC 4554)): 32 µg/mL (≈ 21.7 µM)
MIC Enterococcus faecalis (GC 6189) (Enterococcus sp.; [6]): 16 µg/mL (≈ 10.9 µM)
MIC Enterococcus faecium (GC 2243) (Enterococcus sp.; Enterococcus faecium (GC 2243)): 32 µg/mL (≈ 21.7 µM)
MIC Enterococcus faecium (GC 4556) (Enterococcus sp.; Enterococcus faecium (GC 4556)): 32 µg/mL (≈ 21.7 µM)
MIC Enterococcus faecium (GC 4557) (Enterococcus sp.; Enterococcus faecium (GC 4557)): 32 µg/mL (≈ 21.7 µM)
MIC Enterococcus avium (GC 4558) (Enterococcus sp.; [3]): 16 µg/mL (≈ 10.9 µM)
MIC Enterococcus faecalis (ATCC 29212) (Enterococcus sp.; [3]): 32 µg/mL (≈ 21.7 µM)
MIC Enterococcus faecalis (GC 2242) (Enterococcus sp.; [3]): 16 µg/mL (≈ 10.9 µM)
MIC Enterococcus faecalis (GC 2691) (Enterococcus sp.; [3]): 8 µg/mL (≈ 5.43 µM)
MIC Enterococcus faecalis (GC 3059) (Enterococcus sp.; [3]): 32 µg/mL (≈ 21.7 µM)
MIC Enterococcus faecalis (GC 4552) (Enterococcus sp.; [3]): 32 µg/mL (≈ 21.7 µM)
MIC Enterococcus faecalis (GC 4553) (Enterococcus sp.; [3]): 16 µg/mL (≈ 10.9 µM)
MIC Enterococcus faecalis (GC 4554) (Enterococcus sp.; [3]): 32 µg/mL (≈ 21.7 µM)
MIC Enterococcus faecalis (GC 6189) (Enterococcus sp.; [3]): 16 µg/mL (≈ 10.9 µM)
MIC Enterococcus faecium (GC 2243) (Enterococcus sp.; [3]): 32 µg/mL (≈ 21.7 µM)
MIC Enterococcus faecium (GC 4556) (Enterococcus sp.; [3]): 32 µg/mL (≈ 21.7 µM)
MIC Enterococcus faecium (GC 4557) (Enterococcus sp.; [3]): 32 µg/mL (≈ 21.7 µM)
Structure (SMILES): CC(c1ccccc1)C1NC(=O)CNC(=O)C(CO)NC(=O)C(C(O)C2CNC(=N)N2C2OC(CO)C(O)C(O)C2O)NC(=O)C(C(O)C2CNC(=N)N2)NC(=O)C(Cc2ccc(OC3OC(CO)C(OC4OC5COC6(CCCCCCCCCCCC6)OC5C(O)C4O)C(O)C3O)cc2)NC1=O (stereo not shown) [Example 210]
MIC Staphylococcus haemolyticus (GC 4546) (Staphylococcus sp.; strain GC 4546): 32 µg/mL (≈ 21.7 µM)
